Results as given in patent US8791144B2, “Substituted N-phenyl-1-(4-Pyridinyl)-1H-pyrazol-3-amines” (Janssen Pharmaceutica NV, priority 2009, dated 2014).

Key:
[1] = target: hα7-wt nAChR (Homo sapiens, UniProt P36544); assay: Ca2+ flux imaging (FDSS): potentiation of the choline response; type: cell-based; conditions: Ca2+ assay as described in D.1, potentiation of choline response, hα7-wt nAChR; for EC50: read-out: Potency (pEC50) (converted); for Emax: read-out: % Efficacy
Procedure: • a) Assay Buffer • Hanks buffered saline solution (HBSS, Invitrogen, Belgium), supplemented with 10 mM HEPES (Invitrogen, Belgium), CaCl2 to a final concentration of 5 mM, 0.1% Bovine serum albumin (Sigma-Aldrich NV, Belgium). • b) Calcium-Sensitive Dye—Fluo-4AM • Fluo-4AM (Molecular Probes, USA) was dissolved in DMSO containing 10% Pluronic acid (Molecular Probes, USA) to give a stock solution which was diluted in assay buffer supplemented with 5 mM probenicid (Sigma, Aldrich NV, Belgium) to give a final concentration of 2 μM. • c) 384-Well Plates • Black 384 well plate black/clear plates, PDL pre-coated (Corning, Incorporated, USA) • d) Calcium Flux Measurement • A Functional drug screening system (FDSS, Hamamatsu) was used to measure intracellular free-calcium flux signals. Method
Monolayers of hα7-wt nAChR-expressing cells were grown in multi-well plates, in particular black-sided, transparent bottomed 384 well plates coated with poly-D-lysine for 24 hours prior to loading with a fluorescent calcium indicator, in a particular embodiment loading with fluo-4AM for up to 120 minutes.
PAM activity was detected in real time by applying the compounds to be tested to the loaded cells along with a α7 nicotinic receptor agonist during constant monitoring of cellular fluorescence in a FDSS. Compounds giving peak fluorescent responses greater than the response due to agonist alone, were considered to be α7 nAChR PAM's. In a particular embodiment, the α7 nicotinic receptor agonist was choline, a more particular embodiment choline applied at a sub-maximal concentration of 100 μM. In a further setting of the present invention the compounds to be tested were applied prior to the α7 nicotinic receptor agonist, in a particular embodiment up to 10 minutes prior to the agonist.
A control response to choline was calculated on each plate from the difference in peak in fluorescence in wells receiving either choline or assay buffer alone. Compounds of the present invention were tested at a concentration range from 0.01 μM to 30 μM. Compounds were considered to have an interesting activity when they potentiated the choline signal at least with 200% when tested at a concentration of 30 μM (the efficacy of 100 μM choline was defined as 100% in the absence of a PAM). An EC50 (or pEC50) was determined as a concentration relating to half the maximal effect, when a clear sigmoidal curve with top plateau was obtained.

Chain of hα7-wt nAChR (P36544 23-502): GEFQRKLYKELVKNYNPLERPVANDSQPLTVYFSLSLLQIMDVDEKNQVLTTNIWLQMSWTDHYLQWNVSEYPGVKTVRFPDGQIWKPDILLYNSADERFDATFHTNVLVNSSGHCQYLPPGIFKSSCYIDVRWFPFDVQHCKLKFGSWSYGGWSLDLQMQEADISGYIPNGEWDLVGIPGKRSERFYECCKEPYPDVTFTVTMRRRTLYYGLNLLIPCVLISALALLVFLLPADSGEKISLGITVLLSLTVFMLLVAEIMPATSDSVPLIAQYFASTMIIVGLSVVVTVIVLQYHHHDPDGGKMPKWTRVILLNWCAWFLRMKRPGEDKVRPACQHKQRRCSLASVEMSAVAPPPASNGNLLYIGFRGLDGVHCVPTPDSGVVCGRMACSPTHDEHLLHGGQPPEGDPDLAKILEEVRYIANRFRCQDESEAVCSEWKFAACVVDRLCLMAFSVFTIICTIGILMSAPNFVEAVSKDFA

Row | Structure (SMILES) | EC50 [1] [nM] | melting point [°C] | Emax [1] [%]
1 | COc1cc(Nc2cc(COCc3ccccc3)n(-c3ccnc(C)c3)n2)cc(C(F)(F)F)c1 [Compound 1, N-[3-methoxy-5-(trifluoromethyl)phenyl]-1-(2-methyl-4-pyridinyl)-5-[(phenylmethoxy)methyl]-1H-pyrazol-3-amine] | 1450 | 148.1 | –
2 | Cc1cc(-n2nc(Nc3cccc(C(F)(F)F)c3)cc2CC#N)ccn1 [Compound 40, 1-(2-methyl-4-pyridinyl)-3-[[3-(trifluoromethyl)phenyl]amino]-1H-pyrazole-5-acetonitrile] | 4370 | – | –
3 | CC[C@@H](O)Cc1cc(Nc2cc(F)cc(Cl)c2)nn1-c1ccnc(C)c1 [Compound 60, (alphaR)-3-[(3-chloro-5-fluorophenyl)amino]-alpha-ethyl-1-(2-methyl-4-pyridinyl)-1H-pyrazole-5-ethanol] | 240 | 182.4 | –
4 | Cc1cc(-n2nc(Nc3ccc(F)c(F)c3)cc2CO)ccn1 [Compound 15, 3-[(3,4-difluorophenyl)amino]-1-(2-methyl-4-pyridinyl)-1H-pyrazole-5-methanol] | 2820 | 155.3 | –
5 | Cc1cc(-n2nc(Nc3ccc(F)c(F)c3)cc2C)ccn1 [Compound 14, N-(3,4-difluorophenyl)-5-methyl-1-(2-methyl-4-pyridinyl)-1H-pyrazol-3-amine] | 3390 | 169.2 | –
6 | Cc1cc(-n2nc(Nc3cccc(OC(F)(F)F)c3)cc2CC#N)ccn1 [Compound 107, 1-(2-methyl-4-pyridinyl)-3-[[3-(trifluoromethoxy)phenyl]amino]-1H-pyrazole-5-acetonitrile] | 2820 | 180.2 | –
7 | Cc1cc(-n2nc(Nc3ccc(F)c(F)c3)cc2CCCOCc2ccccc2)ccn1 [Compound 32, N-(3,4-difluorophenyl)-1-(2-methyl-4-pyridinyl)-5-[3-(phenylmethoxy)propyl]-1H-pyrazol-3-amine] | 1020 | 108.2 | –
8 | CC[C@@H](O)Cc1cc(Nc2ccc(F)c(F)c2F)nn1-c1ccnc(C)c1 [Compound 13, (alphaR)-alpha-ethyl-1-(2-methyl-4-pyridinyl)-3-[(2,3,4-trifluorophenyl)amino]-1H-pyrazole-5-ethanol] | 316 | 144.4 | –
9 | CC[C@@H](O)Cc1cc(Nc2cccc(Cl)c2F)nn1-c1ccnc(C)c1 [Compound 59, (alphaR)-3-[(3-chloro-2-fluorophenyl)amino]-alpha-ethyl-1-(2-methyl-4-pyridinyl)-1H-pyrazole-5-ethanol] | 692 | 168.1 | –
10 | Cc1cc(-n2nc(Nc3cccc(OC(F)(F)F)c3)cc2COCc2ccccc2)ccn1 [Compound 122, 1-(2-methyl-4-pyridinyl)-5-[(phenylmethoxy)methyl]-N-[3-(trifluoromethoxy)phenyl]-1H-pyrazol-3-amine] | 372 | 139.8 | –
11 | CNC(=O)Cc1cc(Nc2ccc3c(c2)OC(F)(F)O3)nn1-c1ccnc(C)c1 [Compound 97, 3-[(2,2-difluoro-1,3-benzodioxol-5-yl)amino]-N-methyl-1-(2-methyl-4-pyridinyl)-1H-pyrazole-5-acetamide] | 2510 | 271.2 | –
12 | CNC(=O)Cc1cc(Nc2ccc(F)c(F)c2)nn1-c1ccnc(C)c1 [Compound 27, 3-[(3,4-difluorophenyl)amino]-N-methyl-1-(2-methyl-4-pyridinyl)-1H-pyrazole-5-acetamide] | – | 252.9 | –
13 | COc1cc(Nc2cc(CCCO)n(-c3ccnc(C)c3)n2)cc(C(F)(F)F)c1 [Compound 7, 3-[[3-methoxy-5-(trifluoromethyl)phenyl]amino]-1-(2-methyl-4-pyridinyl)-1H-pyrazole-5-propanol] | 2880 | – | –
14 | COC(=O)Cc1cc(Nc2cccc(OC(F)(F)F)c2)nn1-c1ccnc(C)c1 [Compound 109, 1-(2-methyl-4-pyridinyl)-3-[[3-(trifluoromethoxy)phenyl]amino]-1H-pyrazole-5-acetic acid methyl ester] | 2000 | 115.8 | –
15 | CC[C@@H](O)Cc1cc(Nc2cc(Cl)cc(OC)c2)nn1-c1ccnc(C)c1 [Compound 62, (alphaR)-3-[(3-chloro-5-methoxyphenyl)amino]-alpha-ethyl-1-(2-methyl-4-pyridinyl)-1H-pyrazole-5-ethanol] | 427 | 121.9 | –
16 | Cc1cc(-n2nc(Nc3ccc4c(c3)OC(F)(F)O4)cc2CCCOCc2ccccc2)ccn1 [Compound 104, N-(2,2-difluoro-1,3-benzodioxol-5-yl)-1-(2-methyl-4-pyridinyl)-5-[3-(phenylmethoxy)propyl]-1H-pyrazol-3-amine] | 562 | 124.4 | –
17 | CC[C@@H](O)Cc1cc(Nc2cc(F)c(F)c(F)c2)nn1-c1ccnc(C)c1 [Compound 19, (alphaR)-alpha-ethyl-1-(2-methyl-4-pyridinyl)-3-[(3,4,5-trifluorophenyl)amino]-1H-pyrazole-5-ethanol] | 309 | 170.4 | 705
18 | Cc1cc(-n2nc(Nc3cccc(Cl)c3F)cc2CC#N)ccn1 [Compound 63, 3-[(3-chloro-2-fluorophenyl)amino]-1-(2-methyl-4-pyridinyl)-1H-pyrazole-5-acetonitrile] | 3890 | – | 434
19 | COc1cc(Nc2cc(CC#N)n(-c3ccnc(C)c3)n2)cc(C(F)(F)F)c1 [Compound 3, 3-[[3-methoxy-5-(trifluoromethyl)phenyl]amino]-1-(2-methyl-4-pyridinyl)-1H-pyrazole-5-acetonitrile] | 1950 | 183.8 | 930
